Results from patent US20250052016A1, “ARTIFICIAL TURF COMPRISING ANTIMICROBIAL POLYURETHANE BACKING” (Synthetic Turf Resources (STR), priority 2022, published 2025).

What was measured:
[1] = tested on: S. aureus; settings: added in the polyurethane reaction mixture in amounts of 0.1 wt % to 0.5 wt %
[2] = tested on: E. coli; settings: added in the polyurethane reaction mixture in amounts of 0.1 wt % to 0.5 wt %

## zinc pyrithione
[1]
  effectiveness against S. aureus: particularly effective
[2]
  effectiveness against E. coli: particularly effective
